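Cultured in 96-well plates, cells were exposed to test compound for 48 hours across five concentrations. The concentration for full growth arrest is given as TGI.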
System: MDA-MB-435
Experiment: DTP human tumour cell line panel, 48 h

Compound	TGI
COc1cc2c(NCCCCCCO[N+](=O)[O-])ncnc2c(OC)c1OC	42.3 µM
CC(=O)OCC1OC(n2c(=S)[nH]c(-c3ccccc3)c(C#N)c2=O)C(OC(C)=O)C(OC(C)=O)C1OC(C)=O (stereo not drawn)	> 100 µM
CCOC(=O)c1c(SCCN2CCCC2)n(-c2ccccc2)c(=S)n(-c2ccccc2)c1=O	5.95 µM
COC(=O)CCCC(=O)C(=Nc1c(Cl)cccc1Cl)NNc1ccc(Cl)cc1	> 100 µM
O=[N+]([O-])C(=C(Sc1ccccc1)Sc1ccccc1)C(Cl)=C(Cl)Cl	1.3 µM

System: SR leukemia
Experiment: DTP human tumour cell line panel, 48 h

Compound	TGI
O=C1C(Cl)N(c2ccccc2)C1c1c[nH]c2ccccc12 (stereo not drawn)	> 100 µM
COc1cc2c(NCCCCCCO[N+](=O)[O-])ncnc2c(OC)c1OC	45.1 µM
CC(=O)OCC1OC(n2c(=S)[nH]c(-c3ccccc3)c(C#N)c2=O)C(OC(C)=O)C(OC(C)=O)C1OC(C)=O (stereo not drawn)	> 100 µM
CCOC(=O)c1c(SCCN2CCCC2)n(-c2ccccc2)c(=S)n(-c2ccccc2)c1=O	2.05 µM
COC(=O)CCCC(=O)C(=Nc1c(Cl)cccc1Cl)NNc1ccc(Cl)cc1	> 100 µM
O=[N+]([O-])C(=C(Sc1ccccc1)Sc1ccccc1)C(Cl)=C(Cl)Cl	0.564 µM

System: SNB-75 CNS
Experiment: DTP human tumour cell line panel, 48 h

Compound	TGI
O=C1C(Cl)N(c2ccccc2)C1c1c[nH]c2ccccc12 (stereo not drawn)	> 100 µM
COc1cc2c(NCCCCCCO[N+](=O)[O-])ncnc2c(OC)c1OC	99.3 µM
O=C(O)c1cc(S(=O)(=O)N=NC=C2c3ccccc3N(O)c3ccccc32)ccc1O	7.77 µM
CC(=O)OCC1OC(n2c(=S)[nH]c(-c3ccccc3)c(C#N)c2=O)C(OC(C)=O)C(OC(C)=O)C1OC(C)=O (stereo not drawn)	> 100 µM
CCOC(=O)c1c(SCCN2CCCC2)n(-c2ccccc2)c(=S)n(-c2ccccc2)c1=O	19.5 µM
COC(=O)CCCC(=O)C(=Nc1c(Cl)cccc1Cl)NNc1ccc(Cl)cc1	> 88.9 µM
O=[N+]([O-])C(=C(Sc1ccccc1)Sc1ccccc1)C(Cl)=C(Cl)Cl	10.7 µM

System: DLD-1 colon
Experiment: DTP human tumour cell line panel, 48 h

Compound	TGI
O=C(O)c1cc(S(=O)(=O)N=NC=C2c3ccccc3N(O)c3ccccc32)ccc1O	64.6 µM

System: OVCAR-5 ovarian
Experiment: DTP human tumour cell line panel, 48 h

Compound	TGI
O=C1C(Cl)N(c2ccccc2)C1c1c[nH]c2ccccc12 (stereo not drawn)	> 100 µM
COc1cc2c(NCCCCCCO[N+](=O)[O-])ncnc2c(OC)c1OC	> 92.7 µM
O=C(O)c1cc(S(=O)(=O)N=NC=C2c3ccccc3N(O)c3ccccc32)ccc1O	> 100 µM
CC(=O)OCC1OC(n2c(=S)[nH]c(-c3ccccc3)c(C#N)c2=O)C(OC(C)=O)C(OC(C)=O)C1OC(C)=O (stereo not drawn)	> 100 µM
CCOC(=O)c1c(SCCN2CCCC2)n(-c2ccccc2)c(=S)n(-c2ccccc2)c1=O	> 59.5 µM
COC(=O)CCCC(=O)C(=Nc1c(Cl)cccc1Cl)NNc1ccc(Cl)cc1	> 100 µM
O=[N+]([O-])C(=C(Sc1ccccc1)Sc1ccccc1)C(Cl)=C(Cl)Cl	1.48 µM

System: SW-620 colon
Experiment: DTP human tumour cell line panel, 48 h

Compound	TGI
O=C1C(Cl)N(c2ccccc2)C1c1c[nH]c2ccccc12 (stereo not drawn)	> 100 µM
COc1cc2c(NCCCCCCO[N+](=O)[O-])ncnc2c(OC)c1OC	70.5 µM
O=C(O)c1cc(S(=O)(=O)N=NC=C2c3ccccc3N(O)c3ccccc32)ccc1O	> 100 µM
CC(=O)OCC1OC(n2c(=S)[nH]c(-c3ccccc3)c(C#N)c2=O)C(OC(C)=O)C(OC(C)=O)C1OC(C)=O (stereo not drawn)	> 100 µM
CCOC(=O)c1c(SCCN2CCCC2)n(-c2ccccc2)c(=S)n(-c2ccccc2)c1=O	7.58 µM
COC(=O)CCCC(=O)C(=Nc1c(Cl)cccc1Cl)NNc1ccc(Cl)cc1	> 100 µM
O=[N+]([O-])C(=C(Sc1ccccc1)Sc1ccccc1)C(Cl)=C(Cl)Cl	0.228 µM

System: MDA-MB-231 breast
Experiment: DTP human tumour cell line panel, 48 h

Compound	TGI
COc1cc2c(NCCCCCCO[N+](=O)[O-])ncnc2c(OC)c1OC	38 µM
CC(=O)OCC1OC(n2c(=S)[nH]c(-c3ccccc3)c(C#N)c2=O)C(OC(C)=O)C(OC(C)=O)C1OC(C)=O (stereo not drawn)	> 100 µM
CCOC(=O)c1c(SCCN2CCCC2)n(-c2ccccc2)c(=S)n(-c2ccccc2)c1=O	4.4 µM
COC(=O)CCCC(=O)C(=Nc1c(Cl)cccc1Cl)NNc1ccc(Cl)cc1	> 100 µM
O=[N+]([O-])C(=C(Sc1ccccc1)Sc1ccccc1)C(Cl)=C(Cl)Cl	0.408 µM

System: SNB-19 CNS
Experiment: DTP human tumour cell line panel, 48 h

Compound	TGI
O=C1C(Cl)N(c2ccccc2)C1c1c[nH]c2ccccc12 (stereo not drawn)	> 100 µM
COc1cc2c(NCCCCCCO[N+](=O)[O-])ncnc2c(OC)c1OC	> 100 µM
O=C(O)c1cc(S(=O)(=O)N=NC=C2c3ccccc3N(O)c3ccccc32)ccc1O	> 100 µM
CC(=O)OCC1OC(n2c(=S)[nH]c(-c3ccccc3)c(C#N)c2=O)C(OC(C)=O)C(OC(C)=O)C1OC(C)=O (stereo not drawn)	> 100 µM
CCOC(=O)c1c(SCCN2CCCC2)n(-c2ccccc2)c(=S)n(-c2ccccc2)c1=O	31.2 µM
COC(=O)CCCC(=O)C(=Nc1c(Cl)cccc1Cl)NNc1ccc(Cl)cc1	> 100 µM
O=[N+]([O-])C(=C(Sc1ccccc1)Sc1ccccc1)C(Cl)=C(Cl)Cl	24.8 µM

System: NCI-H23 lung
Experiment: DTP human tumour cell line panel, 48 h

Compound	TGI
O=C1C(Cl)N(c2ccccc2)C1c1c[nH]c2ccccc12 (stereo not drawn)	> 100 µM
COc1cc2c(NCCCCCCO[N+](=O)[O-])ncnc2c(OC)c1OC	59.6 µM
O=C(O)c1cc(S(=O)(=O)N=NC=C2c3ccccc3N(O)c3ccccc32)ccc1O	53.3 µM
CC(=O)OCC1OC(n2c(=S)[nH]c(-c3ccccc3)c(C#N)c2=O)C(OC(C)=O)C(OC(C)=O)C1OC(C)=O (stereo not drawn)	> 100 µM
CCOC(=O)c1c(SCCN2CCCC2)n(-c2ccccc2)c(=S)n(-c2ccccc2)c1=O	27.4 µM
COC(=O)CCCC(=O)C(=Nc1c(Cl)cccc1Cl)NNc1ccc(Cl)cc1	> 100 µM
O=[N+]([O-])C(=C(Sc1ccccc1)Sc1ccccc1)C(Cl)=C(Cl)Cl	2.91 µM

System: DMS 273 small cell lung
Experiment: DTP human tumour cell line panel, 48 h

Compound	TGI
O=C(O)c1cc(S(=O)(=O)N=NC=C2c3ccccc3N(O)c3ccccc32)ccc1O	34.6 µM

System: SN12C renal
Experiment: DTP human tumour cell line panel, 48 h

Compound	TGI
O=C1C(Cl)N(c2ccccc2)C1c1c[nH]c2ccccc12 (stereo not drawn)	> 100 µM
COc1cc2c(NCCCCCCO[N+](=O)[O-])ncnc2c(OC)c1OC	> 71.5 µM
O=C(O)c1cc(S(=O)(=O)N=NC=C2c3ccccc3N(O)c3ccccc32)ccc1O	> 100 µM
CC(=O)OCC1OC(n2c(=S)[nH]c(-c3ccccc3)c(C#N)c2=O)C(OC(C)=O)C(OC(C)=O)C1OC(C)=O (stereo not drawn)	> 100 µM
CCOC(=O)c1c(SCCN2CCCC2)n(-c2ccccc2)c(=S)n(-c2ccccc2)c1=O	3.18 µM
COC(=O)CCCC(=O)C(=Nc1c(Cl)cccc1Cl)NNc1ccc(Cl)cc1	> 100 µM
O=[N+]([O-])C(=C(Sc1ccccc1)Sc1ccccc1)C(Cl)=C(Cl)Cl	1.35 µM

System: TK-10 renal
Experiment: DTP human tumour cell line panel, 48 h

Compound	TGI
O=C1C(Cl)N(c2ccccc2)C1c1c[nH]c2ccccc12 (stereo not drawn)	> 100 µM
COc1cc2c(NCCCCCCO[N+](=O)[O-])ncnc2c(OC)c1OC	49.4 µM
O=C(O)c1cc(S(=O)(=O)N=NC=C2c3ccccc3N(O)c3ccccc32)ccc1O	50 µM
CC(=O)OCC1OC(n2c(=S)[nH]c(-c3ccccc3)c(C#N)c2=O)C(OC(C)=O)C(OC(C)=O)C1OC(C)=O (stereo not drawn)	> 100 µM
CCOC(=O)c1c(SCCN2CCCC2)n(-c2ccccc2)c(=S)n(-c2ccccc2)c1=O	3.06 µM
COC(=O)CCCC(=O)C(=Nc1c(Cl)cccc1Cl)NNc1ccc(Cl)cc1	> 100 µM
O=[N+]([O-])C(=C(Sc1ccccc1)Sc1ccccc1)C(Cl)=C(Cl)Cl	0.326 µM

System: HOP-92 NSCLC
Experiment: DTP human tumour cell line panel, 48 h

Compound	TGI
O=C1C(Cl)N(c2ccccc2)C1c1c[nH]c2ccccc12 (stereo not drawn)	> 100 µM
COc1cc2c(NCCCCCCO[N+](=O)[O-])ncnc2c(OC)c1OC	47.1 µM
O=C(O)c1cc(S(=O)(=O)N=NC=C2c3ccccc3N(O)c3ccccc32)ccc1O	30.1 µM
CC(=O)OCC1OC(n2c(=S)[nH]c(-c3ccccc3)c(C#N)c2=O)C(OC(C)=O)C(OC(C)=O)C1OC(C)=O (stereo not drawn)	> 100 µM
CCOC(=O)c1c(SCCN2CCCC2)n(-c2ccccc2)c(=S)n(-c2ccccc2)c1=O	4.48 µM
COC(=O)CCCC(=O)C(=Nc1c(Cl)cccc1Cl)NNc1ccc(Cl)cc1	> 100 µM
O=[N+]([O-])C(=C(Sc1ccccc1)Sc1ccccc1)C(Cl)=C(Cl)Cl	5.99 µM

System: SF-539 CNS
Experiment: DTP human tumour cell line panel, 48 h

Compound	TGI
O=C1C(Cl)N(c2ccccc2)C1c1c[nH]c2ccccc12 (stereo not drawn)	> 100 µM
COc1cc2c(NCCCCCCO[N+](=O)[O-])ncnc2c(OC)c1OC	71.1 µM
CC(=O)OCC1OC(n2c(=S)[nH]c(-c3ccccc3)c(C#N)c2=O)C(OC(C)=O)C(OC(C)=O)C1OC(C)=O (stereo not drawn)	> 100 µM
CCOC(=O)c1c(SCCN2CCCC2)n(-c2ccccc2)c(=S)n(-c2ccccc2)c1=O	4.86 µM
COC(=O)CCCC(=O)C(=Nc1c(Cl)cccc1Cl)NNc1ccc(Cl)cc1	> 100 µM
O=[N+]([O-])C(=C(Sc1ccccc1)Sc1ccccc1)C(Cl)=C(Cl)Cl	5.81 µM

System: A549 NSCLC
Experiment: DTP human tumour cell line panel, 48 h

Compound	TGI
O=C1C(Cl)N(c2ccccc2)C1c1c[nH]c2ccccc12 (stereo not drawn)	> 100 µM
COc1cc2c(NCCCCCCO[N+](=O)[O-])ncnc2c(OC)c1OC	> 95.7 µM
O=C(O)c1cc(S(=O)(=O)N=NC=C2c3ccccc3N(O)c3ccccc32)ccc1O	> 100 µM
CC(=O)OCC1OC(n2c(=S)[nH]c(-c3ccccc3)c(C#N)c2=O)C(OC(C)=O)C(OC(C)=O)C1OC(C)=O (stereo not drawn)	> 100 µM
CCOC(=O)c1c(SCCN2CCCC2)n(-c2ccccc2)c(=S)n(-c2ccccc2)c1=O	14.6 µM
COC(=O)CCCC(=O)C(=Nc1c(Cl)cccc1Cl)NNc1ccc(Cl)cc1	> 100 µM
O=[N+]([O-])C(=C(Sc1ccccc1)Sc1ccccc1)C(Cl)=C(Cl)Cl	6.59 µM

System: EKVX NSCLC
Experiment: DTP human tumour cell line panel, 48 h

Compound	TGI
O=C1C(Cl)N(c2ccccc2)C1c1c[nH]c2ccccc12 (stereo not drawn)	> 100 µM
COc1cc2c(NCCCCCCO[N+](=O)[O-])ncnc2c(OC)c1OC	68.3 µM
O=C(O)c1cc(S(=O)(=O)N=NC=C2c3ccccc3N(O)c3ccccc32)ccc1O	> 100 µM
CC(=O)OCC1OC(n2c(=S)[nH]c(-c3ccccc3)c(C#N)c2=O)C(OC(C)=O)C(OC(C)=O)C1OC(C)=O (stereo not drawn)	> 100 µM
CCOC(=O)c1c(SCCN2CCCC2)n(-c2ccccc2)c(=S)n(-c2ccccc2)c1=O	27 µM
COC(=O)CCCC(=O)C(=Nc1c(Cl)cccc1Cl)NNc1ccc(Cl)cc1	> 100 µM
O=[N+]([O-])C(=C(Sc1ccccc1)Sc1ccccc1)C(Cl)=C(Cl)Cl	5.15 µM

System: XF 498 CNS
Experiment: DTP human tumour cell line panel, 48 h

Compound	TGI
O=C1C(Cl)N(c2ccccc2)C1c1c[nH]c2ccccc12 (stereo not drawn)	> 100 µM

System: HS 578T breast
Experiment: DTP human tumour cell line panel, 48 h

Compound	TGI
COc1cc2c(NCCCCCCO[N+](=O)[O-])ncnc2c(OC)c1OC	> 87.4 µM
CC(=O)OCC1OC(n2c(=S)[nH]c(-c3ccccc3)c(C#N)c2=O)C(OC(C)=O)C(OC(C)=O)C1OC(C)=O (stereo not drawn)	> 100 µM
CCOC(=O)c1c(SCCN2CCCC2)n(-c2ccccc2)c(=S)n(-c2ccccc2)c1=O	> 100 µM

— PubChem BioAssay (NCI)
